Data as given in US11440896B2, “Aminoalkyl compound” (Daiichi Sankyo Company, Limited, priority 2018, dated 2022).

Tests used:
[1] = Hairless mouse skin permeation test; assay type: in vitro ADME; parameters: unit not given here; conditions: hairless mouse (HR-1) skin, horizontal diffusion cell, 37° C., donor 3.84 mmol/L in IPM, N=3
Protocol: (§1) The compounds described in the Examples were dissolved or suspended in isopropyl myristate (IPM) at a concentration of 3.84 mmol/L and the resultant was used.
The frozen skin of a hairless mouse (HR-1 strain, male, 7 weeks old, Japan SLC, Inc.) was thawed at room temperature and, if there was excess subcutaneous fat, the fat was excised with scissors. The horizontal diffusion cell was kept at a constant temperature by flowing water from a thermostatic circulation tank (37° C.) into the external jacket of the cell. The hairless mouse skin was punched out to ϕ24 mm and mounted tightly in the horizontal diffusion cell, 0.9 mL of a receiver solution (McIlvaine buffer containing 40% polyethylene glycol 400) was added to the dermal side (receiver side), and 0.9 mL of a donor solution (the solution or suspension of the compound described in the Example in IPM at a concentration of 3.84 mmol/L) was added to the stratum corneum side (donor side). […]
The compounds in liquids collected in the skin permeation test were quantified. […]
Skin permeation rate (flux, mmol/cm2/hr) and Lag time (hr) were calculated from the slope and X-axis intercept, respectively, of the regression line at steady state from the profile, and used as indicators of skin permeation.

mice (C57BL/6JJmsSlc) = test: Analgesic score by Tail Flick test in mice; assay type: in vivo; conditions: Mus musculus, sc, subcutaneous administration in Captisol, dose with an analgesic score of 50%
Protocol: A Tail Flick analgesic effect metering device (Ugo Basile) and adult mice (C57BL/6JJmsSlc, Japan SLC, Inc.) were used for evaluation. In the Tail Flick test, thermal stimulation was applied to the tail of each animal, and the latency (in seconds) of escape reflection moving the tail was measured. The maximum heat application time was set to 10 seconds in order to prevent burns.
The compounds described in the Examples were dissolved or suspended in Captisol to prepare test samples. Then, test samples at appropriately selected concentrations were administered subcutaneously to the animals (10 mL/kg), and the latency of escape reflection was measured. The latency of escape reflection before test sample administration was set as [pre-dose measurement], and the analgesic score (%) was calculated as [([measurement]−[pre-dose measurement])/(10−[pre-dose measurement])]×100.
The ED50 was determined by calculating a dose with an analgesic score of 50%.

[2] = Dissolution state in isopropyl myristate (IPM); assay type: physicochemical; conditions: concentration of 3.84 mmol/L
Protocol: as §1

SMILES | Flux (skin permeation rate) [1] | ED50 (mice (C57BL/6JJmsSlc)) [mg/kg] | Dissolution state in IPM [2]
CN(C)C[C@@H]1COCC[C@H]1c1cccc(O)c1 (racemic) [Example 1, 3-[(3R*,4R*)-3-(Dimethylaminomethyl)tetrahydropyran-4-yl]phenol] | 35.77 | 1.6 | –
CN(C)C[C@@H]1CCCC[C@H]1c1cccc(O)c1 [Faxeladol] | 17.14 | 2.7 | Suspended
CN(C)C[C@@H]1COCC[C@H]1c1cccc(O)c1 (relative stereo) [Example 1, 3-[(3R*,4R*)-3-(Dimethylaminomethyl)tetrahydropyran-4-yl]phenol] | – | – | Dissolved
